US10849904B2, “Methods for treatment of retinal disease by photoreceptor gene expression modulation” (University of Washington, priority 2015, dated 2020)

Columns and labels:
retinas from P0 mice = test: P0 mouse retinal explants: Western blot, qPCR, immunohistochemistry; format: cell-based; conditions: 1 μM
Description: Loss-of-function mutations in Nr2e3 cause an increase in the number of S-opsin+ photoreceptors and a decrease in rhodopsin expression. To determine whether PR1 has similar effects on developing photoreceptors, retinas from P0 mice were explanted in media containing DMSO or 1 μM PR1 and assessed the level of rod genes with Western blots and qPCR after two to five days in vitro (FIG. 7A). […] Expression of additional genes was tested using qPCR. After 2 days in culture PR1 decreased the expression of the rod specific genes Nrl, Nr2e3, Rho, and Gnat1 compared to DMSO (FIG. 7D).
Intact retinas without RPE from mice of various strains and ages as indicated were explanted on 0.4 μm pore tissue culture inserts (Millipore) as previously described (Ueki, Y., et al., P53 is required for the developmental restriction in Muller glial proliferation in mouse retina. Glia, 2012. 60(10): p. 1579-89; Ueki, Y., et al., A transient wave of BMP signaling in the retina is necessary for Muller glial differentiation. Development, 2015. 142(3): p. 533-43. Full media (DMEM/F12 (1:1) containing 1% dialyzed FBS, 1% Pen Strep, 0.3% D+ glucose, 2% B27, and 1% N2) changes were performed every other day and small molecules were used at 0.1 μM to 10 μM. Where indicated, EdU (Invitrogen) was included in the media at 5 μg/mL and visualized by staining with the Click-iT EdU Alexa Fluor kit (Thermo Fisher Scientific). For human retinal explant cultures, tissue from 113 day post-conception fetuses was obtained from the University of Washington Birth Defects Laboratory and explanted on 0.4 μm pore tissue culture inserts (Millipore) in media (Neurobasal A with 1% FBS, 1% Pen Strep, 1% N2, 1% B27) containing 10 μM Photoregulin1 or an equal volume of DMSO.
(§1) RNA was isolated using TRIzol (Invitrogen) and cDNA was synthesized using the iScript cDNA synthesis kit (Bio-Rad) following an intervening DNase treatment with RQ1 RNase-free DNase (Promega). SSO Fast (Bio-Rad) was used for quantitative real-time PCR. For analysis, values were normalized to Gapdh and ΔΔCt between DMSO and compound-treated samples was expressed as percent of DMSO treated controls (100*2^ΔΔCt). Two-way Student's t-tests were performed on ΔCt values.
Retinal explants or eyecups were fixed in 4% PFA in 1×PBS for 20 minutes at room temperature and then cryoprotected in 30% sucrose in 1×PBS overnight at 4° C. Samples were embedded in OCT (Sakura Finetek), frozen on dry ice, and then sectioned at 14-16 μm on a cryostat (Leica). Slides were blocked with a solution containing 10% Normal Horse Serum (Vector Labs) and 0.5% Triton X-100 (Sigma-Aldrich) in 1×PBS for 1 hour at room temperature and then stained overnight at 4° C. with primary antibodies diluted in blocking solution. Slides were washed three times with 1×PBS the following day and then incubated in secondary antibodies (Life Technologies) diluted in blocking solution for 2 hours at room temperature, stained with DAPI (Sigma-Aldrich), washed, and coverslipped using Fluoromount-G (SouthernBiotech). An Olympus FluoView FV1000 was used for confocal microscopy.
(§2) Retinal explants or retinas were homogenized in lysis buffer (50 mM Tris, 100 mM NaCl, 5 mM EDTA, 0.1% SDS, 1% Triton X-100, 2.5% glycerol, and 1× protease inhibitor cocktail) and equal amounts of protein samples were loaded and run in a 4-20% SDS gel (Bio-Rad). Protein was transferred to a PVDF membrane (Thermo Fisher Scientific), blocked (5% BSA and 0.1% Tween 20 in 1×PBS) and stained with primary antibodies (Supplemental Table S2) and then HRP-conjugated secondaries (Bio-Rad) diluted in blocking solution. Signals were visualized on X-ray film with SuperSignal West Dura Extended Duration Substrate (Thermo Fisher Scientific) and quantified using ImageJ software (NIH).

rhodopsin = test: IP injection of P2 or P3 pups, rhodopsin expression by qPCR; format: in vivo, mouse; conditions: pups IP 20 μl of 50 mM at P2 or P3, sacrificed the following day, vs DMSO
Description: Nr2e3 is expressed in developing rods prior to birth, and so to test whether PR1 could affect prenatal rod development, wild type timed-pregnant dams were injected with 100 μl of 50 mM PR1 at E14 and E17, during peak S cone photoreceptor genesis and the onset of Nr2e3 expression (FIG. 7F). The pups were sacrificed at P0 and their retinas collected for staining and for quantifying S opsin+ photoreceptors. […] To determine if PR1 affected rhodopsin expression in developing rods in vivo, pups were injected with 20 μl of 50 mM PR1 or an equal volume of DMSO at P2 or P3 (FIG. 7I). The pups were sacrificed the following day and analyzed rhodopsin expression by qPCR.
as §1
For intravitreal injections, adult mice (>P21) were anesthetized with isoflurane and injected with 1.5 μl of 10 mM PR1 using a 32-gauge Hamilton needle. […]

retinas of adult mice = test: Intravitreal injection in adult mice, qPCR and Western blot; format: in vivo, mouse
From the text: Conditional deletion of Nr2e3 in mature photoreceptors has not been reported; however, deletion of Nrl in mature photoreceptors leads to a partial “reprogramming” of the rods: the cells have reduced rod gene expression and an increase in the expression of some cone genes. Because PR1 reduces rod gene expression, including Nrl, in rods even at late stages in their development (P12), it was postulated that PR1 might have similar effects in the retinas of adult mice. To determine if PR1 affects adult photoreceptor gene expression in vivo, intravitreal injections in one eye of an adult mouse (>P21) were made and compared expression to the other eye.
as §1, §2
For intravitreal injections, adult mice (>P21) were anesthetized with isoflurane and injected with 1.5 μl of 10 mM PR1 using a 32-gauge Hamilton needle. Postnatal pups were injected intraperitoneally (IP) with 20 μl of 50 mM PR1 or 20 μl of DMSO at P2 or P3 with a 32-gauge Hamilton needle. Timed-pregnant dams were injected IP with 100 μl of 50 mM PR1 at E14 and E17 with a BD insulin syringe.

[1] = adult mice (>P21), two intravitreal injections over four days, vs other eye
[2] = adult retinas, intravitreal injection

`Cc1cc(C)cc(NC(=O)CCc2nc3sc4c(c3c(=O)[nH]2)CCCC4)c1` [PR1, N-(3,5-dimethylphenyl)-3-(4-oxo-5,6,7,8-tetrahydro-3H-[1]benzothiolo[2,3-d]pyrimidin-2-yl)propanamide] was tested, and the “rhodopsin protein, Western blot” value (retinas from P0 mice; 5 DIV, vs DMSO) was “less rhodopsin protein”, the Crx expression (retinas from P0 mice; 2 days, qPCR, vs DMSO) was “did not significantly decrease” and the Gnat1 expression (retinas from P0 mice; 2 days, qPCR, vs DMSO) was “decreased”. The Gnb1 expression (retinas from P0 mice; 2 days, qPCR, vs DMSO) was “did not significantly decrease”, the Nr2e3 expression (retinas from P0 mice; 2 days, qPCR, vs DMSO) was “decreased” and the Nrl expression (retinas from P0 mice; 2 days, qPCR, vs DMSO) was “decreased”. For the same molecule, the Otx2 expression (retinas from P0 mice; 2 days, qPCR, vs DMSO) was “did not significantly decrease”, the Rho expression (retinas from P0 mice; 2 days, qPCR, vs DMSO) was “decreased” and the “rhodopsin immunoreactivity in sections” value (retinas from P0 mice; immunohistochemistry) was “almost complete absence of rhodopsin immunoreactivity”. For the same molecule, the “Thrb (cone gene) expression” value (retinas from P0 mice; qPCR, vs DMSO) was “increased”, the “level of S opsin immunoreactivity in sectioned explants” value (retinas from P0 mice; vs DMSO) was “overall increase” and the “rhodopsin expression by qPCR” value (rhodopsin) was “decreased rhodopsin”. For the same molecule, the “Rho mRNA expression by qPCR” value (retinas of adult mice; [1]) was “decreased”, the “rhodopsin protein by Western blot” value (retinas of adult mice; [1]) was “decreased” and the S opsin (retinas of adult mice; [2]) was “not observed”. The “expression of the cone photoreceptor marker TRβ2” value (retinas of adult mice; [2]) was “increased”.
